Among the data in patent publication US20070249620A1, “Urea Derivative” (priority 2004, published 2007) are inhibition and melting point values, retold here.

The term melting point denotes the temperature, or range, at which the solid turns liquid.

Series [1] deals with T1, mouse DGAT1 (Mus musculus, UniProt Q9Z2A7).
T1 construct: made in house; host or cells: insect cells (High Five, Sf9, Sf21, etc.), baculovirus expression system (Invitrogen)
T1 sequence (Q9Z2A7 1-498): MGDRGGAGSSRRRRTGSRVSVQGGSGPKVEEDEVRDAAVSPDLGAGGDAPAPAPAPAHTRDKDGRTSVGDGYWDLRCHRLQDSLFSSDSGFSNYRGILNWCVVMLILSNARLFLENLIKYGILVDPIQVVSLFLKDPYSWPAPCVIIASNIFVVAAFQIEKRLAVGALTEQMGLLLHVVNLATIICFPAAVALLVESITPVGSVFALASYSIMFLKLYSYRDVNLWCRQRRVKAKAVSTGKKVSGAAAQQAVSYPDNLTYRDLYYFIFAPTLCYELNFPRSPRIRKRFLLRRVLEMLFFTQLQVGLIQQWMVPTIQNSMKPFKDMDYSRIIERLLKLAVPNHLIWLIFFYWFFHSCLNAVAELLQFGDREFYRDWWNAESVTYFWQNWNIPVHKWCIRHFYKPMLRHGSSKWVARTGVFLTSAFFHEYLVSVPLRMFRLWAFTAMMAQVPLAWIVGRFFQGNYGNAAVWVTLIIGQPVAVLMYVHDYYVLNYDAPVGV
Put plainly: DGAT1 inhibitory effect test (microsome fraction, [14C]-oleoyl-CoA, triglyceride radioactivity by TLC). It is filed as biochemical. The following applies: 0.5 h; concentration of the test compound 0.1 μg/ml; mouse DGAT1 microsomes, 23° C., 30 minutes; read-out: Inhibitory ratio. In a few lines: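 Inhibition was scored from radiolabelled triglyceride separated by TLC, relative to vehicle and net of a 0-min background. The reaction ran for 30 min at room temperature (23 °C) in Tris-HCl pH 8.0 with MgCl2, BSA and Triton X-100. Substrates were 30 μM [14C]-oleoyl-CoA and 0.5 mM dioleoylglycerol, with mouse DGAT1 microsomes from baculovirus-infected insect cells as enzyme.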

Turning to `COc1ccc(F)cc1NC(=O)Nc1ccc(N2CCN(C(=O)Nc3ccc(C)cc3Cl)CC2)nc1` [Example 154, 4-{5-[3-(5-fluoro-2-methoxy-phenyl)-ureido]-pyridin-2-yl}-piperazine-1-carboxylic acid (2-chloro-4-methyl-phenyl)-amide], the melting point was 217 to 218 °C. Besides, the inhibition at 0.1 µg/mL in series [1] was ≥ 50%.
Regarding `COc1ccc(C)cc1NC(=O)Nc1ccc(N2CCN(C(=O)Nc3ccc(F)cc3C(F)(F)F)CC2)nc1` [Example 155, 4-{5-[3-(2-methoxy-5-methyl-phenyl)-ureido]-pyridin-2-yl}-piperazine-1-carboxylic acid (4-fluoro-2-trifluoromethyl-phenyl)-amide], the melting point fell in the range of 186 to 187 °C. For the same compound, the inhibition at 0.1 µg/mL in series [1] was ≥ 50%.
For `Cc1cccc(Cl)c1NC(=O)N1CCN(c2ccc(NC(=O)Nc3ccc(N(C)C)cc3)cc2)CC1` [Example 156, 4-{4-[3-(4-dimethylamino-phenyl)-ureido]-phenyl}-piperazine-1-carboxylic acid (2-chloro-6-methyl-phenyl)-amide], in that order: 214 to 217 °C and ≥ 50%.
`CCC(C)c1ccccc1NC(=O)Nc1ccc(N2CCN(C(=O)Nc3c(C)cccc3Cl)CC2)cc1` (centres unmarked) [Example 157, 4-{4-[3-(2-sec-butyl-phenyl)-ureido]-phenyl}-piperazine-1-carboxylic acid (2-chloro-6-methyl-phenyl)-amide]: the melting point was 232 to 234 °C. Also, the inhibition at 0.1 µg/mL in series [1] is ≥ 50%.
For `Cc1cccc(Cl)c1NC(=O)N1CCN(c2ccc(NC(=O)Nc3ccc(C(C)C)cc3)cc2)CC1` [Example 158, 4-{4-[3-(4-isopropyl-phenyl)-ureido]-phenyl}-piperazine-1-carboxylic acid (2-chloro-6-methyl-phenyl)-amide], in that order: 278 to 280 °C and ≥ 50%.
The compound `CCOc1ccc(NC(=O)Nc2ccc(N3CCN(C(=O)Nc4c(C)cccc4Cl)CC3)cc2)cc1` [Example 159, 4-{4-[3-(4-ethoxy-phenyl)-ureido]-phenyl}-piperazine-1-carboxylic acid (2-chloro-6-methyl-phenyl)-amide] showed a melting point of 229 to 230 °C. In addition, in series [1], the inhibition at 0.1 µg/mL was ≥ 50%.
For `CCc1ccc(NC(=O)Nc2ccc(N3CCN(C(=O)Nc4c(C)cccc4Cl)CC3)cc2)cc1` [Example 160, 4-{4-[3-(4-ethyl-phenyl)-ureido]-phenyl}-piperazine-1-carboxylic acid (2-chloro-6-methyl-phenyl)-amide], in that order: 239 to 241 °C and ≥ 50%.
Taken in the same sequence, the figures for `CCC(C)c1ccc(NC(=O)Nc2ccc(N3CCN(C(=O)Nc4c(C)cccc4Cl)CC3)cc2)cc1` (centres unmarked) [Example 161, 4-{4-[3-(4-sec-butyl-phenyl)-ureido]-phenyl}-piperazine-1-carboxylic acid (2-chloro-6-methyl-phenyl)-amide] were 259 to 261 °C and ≥ 50%.
The compound `CCCCOc1ccc(NC(=O)Nc2ccc(N3CCN(C(=O)Nc4c(C)cccc4Cl)CC3)cc2)cc1` [Example 162, 4-{4-[3-(4-butoxy-phenyl)-ureido]-phenyl}-piperazine-1-carboxylic acid (2-chloro-6-methyl-phenyl)-amide] gave a melting point of 218 to 219 °C. For the same compound, in series [1], the inhibition at 0.1 µg/mL was ≥ 50%.
Take `Cc1cccc(Cl)c1NC(=O)N1CCN(c2ccc(NC(=O)Nc3cc(C(F)(F)F)ccc3F)cc2)CC1` [Example 163, 4-{4-[3-(2-fluoro-5-trifluoromethyl-phenyl)-ureido]-phenyl}-piperazine-1-carboxylic acid (2-chloro-6-methyl-phenyl)-amide]: the melting point lay in the range of 228 to 230 °C. Besides, in series [1], the inhibition at 0.1 µg/mL was ≥ 50%.
For `Cc1cccc(Cl)c1NC(=O)N1CCN(c2ccc(NC(=O)Nc3cc(C(F)(F)F)ccc3Cl)cc2)CC1` [Example 164, 4-{4-[3-(2-chloro-5-trifluoromethyl-phenyl)-ureido]-phenyl}-piperazine-1-carboxylic acid (2-chloro-6-methyl-phenyl)-amide], the melting point was 249 to 251 °C. For the same compound, the inhibition at 0.1 µg/mL in series [1] is ≥ 50%.
As to `Cc1ccc(Cl)c(NC(=O)Nc2ccc(N3CCN(C(=O)Nc4c(C)cccc4Cl)CC3)cc2)c1` [Example 165, 4-{4-[3-(2-chloro-5-methyl-phenyl)-ureido]-phenyl}-piperazine-1-carboxylic acid (2-chloro-6-methyl-phenyl)-amide], the melting point is > 260 °C (dec.). Also, in series [1], the inhibition at 0.1 µg/mL was ≥ 50%.
`COc1ccc(C)cc1NC(=O)Nc1ccc(N2CCN(C(=O)Nc3ccc(N)cc3C(F)(F)F)CC2)cc1` [Example 166, 4-{4-[3-(2-methoxy-5-methyl-phenyl)-ureido]-phenyl}-piperazine-1-carboxylic acid (4-amino-2-trifluoromethyl-phenyl)-amide]: the melting point lay within 244 to 246 °C. For the same compound, the inhibition at 0.1 µg/mL in series [1] is ≥ 50%.
Regarding `COc1ccc(C)cc1NC(=O)Nc1ccc(N2CCN(C(=O)Nc3c(C)cccc3N)CC2)cc1` [Example 167, 4-{4-[3-(2-methoxy-5-methyl-phenyl)-ureido]-phenyl}-piperazine-1-carboxylic acid (2-amino-6-methyl-phenyl)-amide], the melting point is 198 to 199 °C. In addition, in series [1], the inhibition at 0.1 µg/mL was ≥ 50%.
Taken in the same sequence, the figures for `COc1ccc(C)cc1NC(=O)Nc1ccc(N2CCN(C(=O)Nc3ccc(N)cc3Cl)CC2)cc1` [Example 168, 4-{4-[3-(2-methoxy-5-methyl-phenyl)-ureido]-phenyl}-piperazine-1-carboxylic acid (4-amino-2-chloro-phenyl)-amide] were 226 to 228 °C and ≥ 50%.
Regarding `COc1ccc(C)cc1NC(=O)Nc1ccc(N2CCN(C(=O)Nc3ccc(NC(C)=O)cc3Cl)CC2)cc1` [Example 169, 4-{4-[3-(2-methoxy-5-methyl-phenyl)-ureido]-phenyl}-piperazine-1-carboxylic acid (4-acetylamino-2-chloro-phenyl)-amide], the melting point lay within 155 to 157 °C. For the same compound, the inhibition at 0.1 µg/mL in series [1] was ≥ 50%.
Taken in the same sequence, the figures for `COc1ccc(C)cc1NC(=O)Nc1ccc(N2CCN(C(=O)Nc3c(C)cccc3OC)CC2)cc1` [Example 170, 4-{4-[3-(2-methoxy-5-methyl-phenyl)-ureido]-phenyl}-piperazine-1-carboxylic acid (2-methoxy-6-methyl-phenyl)-amide] were 200 to 203 °C and ≥ 50%.
For `COc1ccc(C)cc1NC(=O)Nc1ccc(N2CCN(C(=O)Nc3ccc(Br)cc3C#N)CC2)cc1` [Example 171, 4-{4-[3-(2-methoxy-5-methyl-phenyl)-ureido]-phenyl}-piperazine-1-carboxylic acid (4-bromo-2-cyano-phenyl)-amide], in that order: 149 to 151 °C and ≥ 50%.
With `COc1ccc(C)cc1NC(=O)Nc1ccc(N2CCN(C(=O)Nc3ccc(F)cc3C)CC2)cc1` [Example 172, 4-{4-[3-(2-methoxy-5-methyl-phenyl)-ureido]-phenyl}-piperazine-1-carboxylic acid (4-fluoro-2-methyl-phenyl)-amide], the melting point was > 270 °C (dec.). Also, the inhibition at 0.1 µg/mL in series [1] was ≥ 50%.
